Assay results from patent US11254686B1 (Corvus Pharmaceuticals, Inc., priority 2017, dated 2022).

Legend:
Format in all cases: biochemical
[1] = target: adenosine A2A receptor (Homo sapiens (Human), UniProt P29274); test: Adenosine receptor activity assay (Table 1), A2A activity; settings: read-out: Ave A2A cAMP IC50
[2] = target: adenosine A2B receptor (Homo sapiens (Human), UniProt P29275); test: Adenosine receptor activity assay (Table 1), A2B activity; settings: for Ratio: A2A activity to A2B activity (A2A/A2B); for IC50: read-out: Ave A2B cAMP IC50
Sequence of adenosine A2B receptor (P29275 whole entry): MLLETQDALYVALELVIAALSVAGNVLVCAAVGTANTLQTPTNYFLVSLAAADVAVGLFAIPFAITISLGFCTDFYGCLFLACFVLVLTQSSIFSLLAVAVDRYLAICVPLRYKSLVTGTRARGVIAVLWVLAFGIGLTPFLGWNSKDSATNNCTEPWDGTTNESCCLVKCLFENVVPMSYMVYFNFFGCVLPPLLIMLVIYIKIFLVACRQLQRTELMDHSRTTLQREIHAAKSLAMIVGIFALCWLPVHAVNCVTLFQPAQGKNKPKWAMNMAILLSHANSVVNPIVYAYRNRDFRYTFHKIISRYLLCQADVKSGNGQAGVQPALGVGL

[3] = target: adenosine A1 receptor (Homo sapiens (Human), UniProt P30542); test: A1 cAMP IC50 assay (Table 1)
Sequence of adenosine A1 receptor (P30542 whole entry): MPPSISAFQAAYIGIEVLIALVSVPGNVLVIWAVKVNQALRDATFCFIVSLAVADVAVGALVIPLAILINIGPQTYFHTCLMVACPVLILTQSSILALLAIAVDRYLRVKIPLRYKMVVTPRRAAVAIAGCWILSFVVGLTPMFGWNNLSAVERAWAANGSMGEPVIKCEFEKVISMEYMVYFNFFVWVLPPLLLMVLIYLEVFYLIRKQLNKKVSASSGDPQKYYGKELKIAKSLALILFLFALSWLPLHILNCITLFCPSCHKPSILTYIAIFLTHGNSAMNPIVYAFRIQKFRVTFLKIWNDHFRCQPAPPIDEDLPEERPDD

[4] = target: adenosine A3 receptor (Homo sapiens (Human), UniProt P0DMS8); test: A3 cAMP IC50 assay (Table 1)
Sequence of adenosine A3 receptor (P0DMS8 whole entry): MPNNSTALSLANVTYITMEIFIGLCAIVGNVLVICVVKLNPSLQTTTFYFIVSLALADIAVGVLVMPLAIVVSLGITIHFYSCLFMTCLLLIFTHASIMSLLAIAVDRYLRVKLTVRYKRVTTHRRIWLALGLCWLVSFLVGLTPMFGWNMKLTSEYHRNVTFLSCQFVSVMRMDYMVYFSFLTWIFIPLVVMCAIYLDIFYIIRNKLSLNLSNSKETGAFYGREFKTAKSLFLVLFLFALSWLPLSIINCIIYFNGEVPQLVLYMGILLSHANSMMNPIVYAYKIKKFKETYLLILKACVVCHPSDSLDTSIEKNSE

Sequence of adenosine A2A receptor (P29274 whole entry): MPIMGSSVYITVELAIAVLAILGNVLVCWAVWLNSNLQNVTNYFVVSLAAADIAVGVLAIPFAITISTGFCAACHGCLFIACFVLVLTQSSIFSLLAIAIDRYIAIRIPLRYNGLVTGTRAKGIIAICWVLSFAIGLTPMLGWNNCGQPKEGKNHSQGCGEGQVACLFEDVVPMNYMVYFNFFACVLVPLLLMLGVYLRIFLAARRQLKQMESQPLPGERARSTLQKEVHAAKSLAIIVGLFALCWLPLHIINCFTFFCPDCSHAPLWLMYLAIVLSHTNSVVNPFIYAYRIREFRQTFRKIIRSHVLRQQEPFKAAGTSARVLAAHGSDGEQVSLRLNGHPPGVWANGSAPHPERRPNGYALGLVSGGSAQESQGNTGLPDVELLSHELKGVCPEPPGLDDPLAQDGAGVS

| Structure (SMILES) | IC50 [1] [µM] | Ratio [2] | IC50 [2] [µM] | IC50 [3] [µM] | IC50 [4] [µM] |
| --- | --- | --- | --- | --- | --- |
| C[C@H](Nc1nc(C(=O)N2CCC2)c2sccc2n1)c1cccc(F)c1 [Example Z128, (S)-Azetidin-1-yl(2-((1-(3-fluorophenyl)ethyl)amino)thieno[3,2-d]pyrimidin-4-yl)methanone] | 0.05 to 0.1 | 32.43 | < 0.01 | > 0.5 | > 0.5 |
| CNc1cc2nc(N[C@@H](C)c3ccccn3)nc(C(=O)N3CC[C@@H](O)C3)c2s1 [Example Z176, ((R)-3-Hydroxypyrrolidin-1-yl)(6-(methylamino)-2-(((S)-1-(pyridin-2-yl)ethyl)amino)thieno[3,2-d]pyrimidin-4-yl)methanone] | > 0.5 | 27.44 | 0.01 to 0.05 | > 0.5 | 0.05 to 0.1 |
| C[C@H](Nc1nc(C(=O)NCc2ccc(OCC3CC3)nc2)c2sccc2n1)c1ccccn1 [Example Z107, (S)—N-((6-(Cyclopropylmethoxy)pyridin-3-yl)methyl)-2-((1-(pyridin-2-yl)ethyl)amino)thieno[3,2-d]pyrimidine-4-carboxamide] | 0.05 to 0.1 | 0.84 | 0.05 to 0.1 | 0.1 to 0.5 | 0.1 to 0.5 |
| C[C@H](Nc1nc(C(=O)N2CCC(F)(F)C2)c2sccc2n1)c1cccnc1 [Example Z13, (S)-(3,3-Difluoropyrrolidin-1-yl)(2-((1-(pyridin-3-yl)ethyl)amino)thieno[3,2-d]pyrimidin-4-yl)methanone] | 0.1 to 0.5 | 3.93 | 0.01 to 0.05 | > 0.5 | > 0.5 |
| CNc1cc2nc(N[C@@H](C)c3ccccn3)nc(C(=O)N3CCC3)c2s1 [Example Z173, (S)-Azetidin-1-yl(6-(methylamino)-2-((1-(pyridin-2-yl)ethyl)amino)thieno[3,2-d]pyrimidin-4-yl)methanone] | 0.1 to 0.5 | 45.26 | < 0.01 | > 0.5 | 0.05 to 0.1 |
| CNc1cc2nc(N[C@@H](C)c3ccccn3)nc(C(=O)N3CC[C@@H](F)C3)c2s1 [Example Z175, ((R)-3-fluoropyrrolidin-1-yl)(6-(methylamino)-2-(((S)-1-(pyridin-2-yl)ethyl)amino)thieno[3,2-d]pyrimidin-4-yl)methanone] | 0.1 to 0.5 | 22.59 | < 0.01 | > 0.5 | 0.05 to 0.1 |
| O=C(c1nc(NCc2ccccn2)nc2ccsc12)N1CCCC1 [Example Z95, (2-((Pyridin-2-ylmethyl)amino)thieno[3,2-d]pyrimidin-4-yl)(pyrrolidin-1-yl)methanone] | 0.1 to 0.5 | 8.80 | 0.01 to 0.05 | > 0.5 | > 0.5 |
| C[C@H](Nc1nc(C(=O)NC2CC2)c2sccc2n1)c1ccccn1 [Example Z192, (S)—N-Cyclopropyl-2-((1-(pyridin-2-yl)ethyl)amino)thieno[3,2-d]pyrimidine-4-carboxamide] | 0.01 to 0.05 | 6.93 | < 0.01 | 0.05 to 0.1 | > 0.5 |
| C[C@H](Nc1nc(C(=O)NCc2ccccn2)c2sccc2n1)c1cccnc1 [Example Z89, (S)—N-(Pyridin-2-ylmethyl)-2-((1-(pyridin-3-yl)ethyl)amino)thieno[3,2-d]pyrimidine-4-carboxamide] | 0.01 to 0.05 | 0.89 | 0.01 to 0.05 | > 0.5 | 0.05 to 0.1 |
| C[C@H](O)CNC(=O)c1nc(N[C@@H](C)c2ccccn2)nc2ccsc12 [Example Z163, N—((S)-2-Hydroxypropyl)-2-(((S)-1-(pyridin-2-yl)ethyl)amino)thieno[3,2-d]pyrimidine-4-carboxamide] | 0.1 to 0.5 | 4.38 | 0.05 to 0.1 | > 0.5 | > 0.5 |
| C[C@H](Nc1nc(C(=O)N[C@H]2C[C@@H](O)C2)c2sccc2n1)c1ccccn1 [Example Z158, N-((1s,3R)-3-Hydroxycyclobutyl)-2-(((S)-1-(pyridin-2-yl)ethyl)amino)thieno[3,2-d]pyrimidine-4-carboxamide] | 0.01 to 0.05 | – | < 0.01 | 0.1 to 0.5 | > 0.5 |
| O=C(NC1CC(O)C1)c1nc(NCc2cncc(F)c2)nc2ccsc12 (stereo not shown) [Example Z184, 2-(((5-Fluoropyridin-3-yl)methyl)amino)-N-((1r,3r)-3-hydroxycyclobutyl)thieno[3,2-d]pyrimidine-4-carboxamide] | > 0.5 | 25.53 | 0.01 to 0.05 | > 0.5 | > 0.5 |
| CC(C)(C)OC(=O)N[C@@H]1CCN(C(=O)c2nc(NCc3cc(F)cc(F)c3)nc3ccsc23)C1 [Example Z167, tert-Butyl (R)-(1-(2-((3,5-difluorobenzyl)amino)thieno[3,2-d]pyrimidine-4-carbonyl)pyrrolidin-3-yl)carbamate] | 0.1 to 0.5 | 16.55 | 0.01 to 0.05 | > 0.5 | 0.05 to 0.1 |
| C[C@H](Nc1nc(C(=O)N2CC[C@@H](O)C2)c2sccc2n1)c1cccc(F)c1 [Example Z132, (2-(((S)-1-(3-Fluorophenyl)ethyl)amino)thieno[3,2-d]pyrimidin-4-yl)((R)-3-hydroxypyrrolidin-1-yl)methanone] | 0.1 to 0.5 | 20.13 | < 0.01 | > 0.5 | > 0.5 |
| O=C(c1nc(NCc2cccc(F)c2)nc2ccsc12)N1CCCC1 [Example Z84, (2-((3-Fluorobenzyl)amino)thieno[3,2-d]pyrimidin-4-yl)(pyrrolidin-1-yl)methanone] | > 0.5 | 18.10 | 0.01 to 0.05 | > 0.5 | > 0.5 |
| CNc1cc2nc(N[C@@H](C)c3cccnc3)nc(C(=O)N3CC[C@H](F)C3)c2s1 [Example Z187, ((S)-3-Fluoropyrrolidin-1-yl)(6-(methylamino)-2-(((S)-1-(pyridin-3-yl)ethyl)amino)thieno[3,2-d]pyrimidin-4-yl)methanone] | 0.1 to 0.5 | 48.67 | < 0.01 | > 0.5 | 0.05 to 0.1 |
| C[C@H](Nc1nc(C(=O)N2CCC2)c2sc(N)cc2n1)c1ccccn1 [Example Z189, (S)-(6-Amino-2-((1-(pyridin-2-yl)ethyl)amino)thieno[3,2-d]pyrimidin-4-yl)(azetidin-1-yl)methanone] | 0.1 to 0.5 | 36.15 | < 0.01 | > 0.5 | 0.05 to 0.1 |
| C[C@H](Nc1nc(C(=O)N[C@H]2C[C@H](O)C2)c2sccc2n1)c1ccccn1 [Example Z159, N-((1r,3S)-3-Hydroxycyclobutyl)-2-(((S)-1-(pyridin-2-yl)ethyl)amino)thieno[3,2-d]pyrimidine-4-carboxamide] | 0.1 to 0.5 | 5.18 | 0.01 to 0.05 | > 0.5 | > 0.5 |
| COc1cccc(CNC(=O)c2nc(N[C@@H](C)c3cccnc3)nc3ccsc23)n1 [Example Z73, (S)—N-((6-Methoxypyridin-2-yl)methyl)-2-((1-(pyridin-3-yl)ethyl)amino)thieno[3,2-d]pyrimidine-4-carboxamide] | 0.05 to 0.1 | 3.11 | 0.01 to 0.05 | > 0.5 | 0.05 to 0.1 |
| CNc1cc2nc(N[C@@H](C)c3cccnc3)nc(C(=O)N3CC[C@@H](O)C3)c2s1 [Example Z172, ((R)-3-Hydroxypyrrolidin-1-yl)(6-(methylamino)-2-(((S)-1-(pyridin-3-yl)ethyl)amino)thieno[3,2-d]pyrimidin-4-yl)methanone] | > 0.5 | 54.37 | 0.05 to 0.1 | > 0.5 | > 0.5 |
| O=C(c1nc(NCc2cncc(Cl)c2)nc2ccsc12)N1CCCC1 [Example Z93, (2-(((5-Chloropyridin-3-yl)methyl)amino)thieno[3,2-d]pyrimidin-4-yl)(pyrrolidin-1-yl)methanone] | > 0.5 | 57.59 | 0.01 to 0.05 | > 0.5 | > 0.5 |
| C[C@H](Nc1nc(C(=O)N[C@H]2CCN(C(=O)OC(C)(C)C)C2)c2sccc2n1)c1ccccn1 [Example Z143, tert-Butyl (S)-3-(2-(((S)-1-(pyridin-2-yl)ethyl)amino)thieno[3,2-d]pyrimidine-4-carboxamido)pyrrolidine-1-carboxylate] | 0.01 to 0.05 | 0.44 | 0.05 to 0.1 | > 0.5 | 0.01 to 0.05 |
| C[C@H](Nc1nc(C(=O)NC[C@@H](C)O)c2sccc2n1)c1ccccn1 [Example Z162, N—((R)-2-Hydroxypropyl)-2-(((S′)-1-(pyridin-2-yl)ethyl)amino)thieno[3,2-d]pyrimidine-4-carboxamide] | 0.1 to 0.5 | 5.97 | 0.01 to 0.05 | > 0.5 | > 0.5 |
| CNc1cc2nc(N[C@@H](C)c3cccnc3)nc(C(=O)N3CCC3)c2s1 [Example Z153, (S)-Azetidin-1-yl(6-(methylamino)-2-((1-(pyridin-3-yl)ethyl)amino)thieno[3,2-d]pyrimidin-4-yl)methanone] | 0.1 to 0.5 | 46.65 | < 0.01 | > 0.5 | 0.05 to 0.1 |
| CNc1cc2nc(NCc3ccccn3)nc(C(=O)N3CCCC3)c2s1 [Example Z160, (6-(Methylamino)-2-((pyridin-2-ylmethyl)amino)thieno[3,2-d]pyrimidin-4-yl)(pyrrolidin-1-yl)methanone] | > 0.5 | 22.65 | 0.01 to 0.05 | > 0.5 | 0.05 to 0.1 |
